Experiment [1] can be described thus: Inhibition of HIV reverse transcriptase. Set-up: species or system Human immunodeficiency virus.
In experiment [2] the test system is Human immunodeficiency virus. Nature of the experiment: Antiviral activity against HIV by cell based assay. The format is functional, organism-based. To be noted: Human immunodeficiency virus 1.
Experiment [3] is described as follows: Inhibition of HIV integrase. Set-up: species or system Human immunodeficiency virus.

pEC50, pIC50: −log10 of the molar value.

Usually pIC50 stands for the IC50 on a negative log10 scale, so that one unit is a factor of ten. Low values mean a high IC50, high ones a low IC50. For orientation: pEC50 means the negative decadic logarithm of the EC50, by convention in mol/L. For the compound `CCn1cc(C(=O)O)c(=O)c2cc(COCn3c(Cc4ccccc4)c(C(C)C)c(=O)[nH]c3=O)ccc21`, the pIC50 was 5.96 in experiment [1] and 4.29 in experiment [3]. This compound also gave a pEC50 in experiment [2] of 5.82.
In the same order, the values of `CC(C)c1c(Cc2ccccc2)n(COCc2ccc3[nH]cc(C(=O)O)c(=O)c3c2)c(=O)[nH]c1=O` are 6.72, 4.46 and 6.66.
On the same counts, the results for `CC(C)c1c(Cc2ccccc2)n(COCc2ccc3c(c2)c(=O)c(C(=O)O)cn3C)c(=O)[nH]c1=O` are 5.59, 4.39 and 6.68.
On the same counts, the results for `CC(C)c1c(Cc2ccccc2)n(COCc2ccc3c(c2)c(=O)c(C(=O)O)cn3CCO)c(=O)[nH]c1=O` are 5.43, 4.72 and 5.66.

Source of the values: ChEMBL document CHEMBL1142366, “Synthesis of pyrimidine and quinolone conjugates as a scaffold for dual inhibitors of HIV reverse transcriptase and integrase” (Bioorg Med Chem Lett, 2008).
